{"source": "paper PMC4140855", "about": "“Production of an Attenuated Phenol-Soluble Modulin Variant Unique to the MRSA Clonal Complex 30 Increases Severity of Bloodstream Infection” (PLoS Pathogens, 2014)", "assay_type_in_all_cases": "cell-based", "key": {"[1]": {"test_system": "human neutrophils", "assay": "PMN lysis (LDH release)", "details": "37°C, 1 h; for PMN lysis at high concentration: synthetic peptides at 10 µg/ml or higher", "method": "Figure 5 PSMα3N22Y has diminished cytolytic activities. (A) PMN lysis of synthetic PSMα3N22Y versus PSMα3. Data are from 2 donors, measured in triplicate each after incubation at 37°C for 1 h. […] (B) Hemolysis of synthetic PSMα3N22Y versus PSMα3. Data are from 2 donors, measured in triplicate, after incubation at 37°C for 1 h. (C, D) PMN lysis and hemolysis, respectively, of culture filtrates from PSMα3N22Y- versus PSMα3-producing strains when expressed on plasmids. pTXΔ16 is the empty control vector. The background strain in all constructs is a PSM-free USA300 strain (LACΔpsmαΔpsmβΔhld). Culture filtrates were diluted 1∶20 for the PMN lysis and 1∶2 for the hemolysis measurements. PMN lysis results are from two and hemolysis data from one donor, with three replicates measured each. (E) PMN lysis of culture filtrates from MRSA252 (252) versus 252*, in which the psmα3 gene (expressing PSMα3N22Y) on the genome was changed to express PSMα3 as present in all non-CC30 strains. […] Culture filtrates were diluted 1∶10. *, p<0.05 (paired t-test). (F) Hemolysis of culture filtrates from the same strains as in (E) at different dilutions. (A–F), *, p<0.05; **, p<0.01; ***, p<0.001; ****, p<0.0001. […]\n(§1) Human neutrophils were isolated from venous blood of healthy donors as described, [39]. Neutrophil chemotaxis and Ca^2+ flux were determined as previously described, [24]. […] Chemotaxis of neutrophils was determined using a transwell system (Costar) with analysis of neutrophil migration using fluorescence labeling. Calcium fluxes were monitored as a surrogate marker for chemotaxis since it can be measured more robustly and accurately than chemotaxis. For measurement of Ca^2+ fluxes, 5×10^6 neutrophils/ml were labeled with a fluorescent dye and analyzed with a FACScalibur (Becton Dickinson) as described. […] Measurements of 2,000 events were performed and Ca^2+ flux was expressed as relative fluorescence corrected for buffer controls. […] At the desired times, PMN lysis was determined by release of lactate dehydrogenase (LDH) (Cytotoxicity Detection Kit, Roche Applied Sciences)."}, "[2]": {"molecular_target": "T1, FPR2 (Homo sapiens, UniProt P25090)", "T1 construct": "expressed in transfected cells; host or cells: HL60 cells, stably transfected", "T1 sequence (P25090 1-351)": "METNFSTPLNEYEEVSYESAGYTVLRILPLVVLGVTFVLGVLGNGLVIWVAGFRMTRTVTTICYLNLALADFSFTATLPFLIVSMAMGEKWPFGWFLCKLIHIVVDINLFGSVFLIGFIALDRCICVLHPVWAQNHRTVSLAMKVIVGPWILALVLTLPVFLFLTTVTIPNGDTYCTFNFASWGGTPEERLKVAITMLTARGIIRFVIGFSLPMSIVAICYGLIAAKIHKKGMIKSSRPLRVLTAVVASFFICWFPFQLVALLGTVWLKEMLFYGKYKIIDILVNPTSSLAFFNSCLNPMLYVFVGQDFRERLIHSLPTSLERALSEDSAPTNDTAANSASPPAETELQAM", "assay": "Ca2+ flux in HL60 cells stably transfected with FPR2", "details": "for Activation of FPR2 relative to FPR1 and FPR3: both peptides", "method": "(§2) Next, we analyzed Ca^2+ flux as a general measure to test for neutrophil activation, as used in previous studies. HL60 cells stably transfected with different FPR receptor genes were used to determine which FPR receptors are differentially activated by PSMα3 versus PSMα3N22Y (Fig. 4A). […] At a peptide concentration of 100 nM, we observed a difference of ∼factor 2 in chemotactic activity comparing the two peptides when FPR1 recognition was inhibited by CHIPS, likely attributable to FPR2-mediated recognition. Owing to the overall ∼10 times lower capacity to stimulate FPR receptors other than FPR2, we observed no chemotaxis at that peptide concentration with addition of the FPR2 blocking agent FLIPr.\n(A) Differential activation of FPRs by PSMα3 versus PSMα3N22Y was measured using synthetic peptides and Ca^2+ flux observed in HL60 cells stably transfected with the corresponding FPR genes as readout, using three biological and two technical replicates. The calculated Kd values are shown on the right. […] (B) Ca^2+ flux in human neutrophils upon addition of PSMα3 or PSMα3N22Y and inhibition by FLIPr (FPR2 inhibitor) or CHIPS (FPR1 inhibitor). Neutrophils were from three donors and the measurements were performed in quadruplicate. *, p<0.05; **, p<0.01; ***, p<0.001; ****, p<0.0001 (comparing values obtained with PSMα3 versus corresponding values obtained with PSMα3N22Y). TEXT PRINTED IN THE PICTURE: (A) PSMα3: Kd (nM): FPR1: 615.6 ± 101.2; Kd (nM): FPR2: 11.90 ± 1.90; Kd (nM): FPR3: 1377 ± 285 | (A) PSMα3 N22Y: Kd (nM): FPR1: 3039 ± 682; Kd (nM): FPR2: 10.81 ± 2.38; Kd (nM): FPR3: 953.0 ± 253.9\nSynthetic PSM peptides were obtained from commercial vendors at a purity of >95%. They all carry the N-terminal N-formyl methionine as common for PSMs, which are secreted into the medium without a signal peptide. […]\nas §1"}, "[3]": {"test_system": "human neutrophils", "assay": "Human neutrophil chemotaxis / Ca2+ flux with FPR2 inhibited by FLIPr", "details": "FLIPr 0.5 µg/ml, 20 min pre-incubation at room temperature, three donors, quadruplicate; for Chemotaxis with addition of FPR2 blocking agent FLIPr, 100 nM peptide: peptide 100 nM", "method": "as §2\n(A) Differential activation of FPRs by PSMα3 versus PSMα3N22Y was measured using synthetic peptides and Ca^2+ flux observed in HL60 cells stably transfected with the corresponding FPR genes as readout, using three biological and two technical replicates. The calculated Kd values are shown on the right. […] (B) Ca^2+ flux in human neutrophils upon addition of PSMα3 or PSMα3N22Y and inhibition by FLIPr (FPR2 inhibitor) or CHIPS (FPR1 inhibitor). […]\nas §1"}, "[4]": {"details": "Ca2+ flux, transfected HL60 cells"}}, "data": [{"smiles": "CSCC[C@H](NC=O)C(=O)N[C@@H](CCC(=O)O)C(=O)N[C@@H](Cc1ccccc1)C(=O)N[C@H](C(=O)N[C@@H](C)C(=O)N[C@@H](CCCCN)C(=O)N[C@@H](CC(C)C)C(=O)N[C@@H](Cc1ccccc1)C(=O)N[C@@H](CCCCN)C(=O)N[C@@H](Cc1ccccc1)C(=O)N[C@@H](Cc1ccccc1)C(=O)N[C@@H](CCCCN)C(=O)N[C@@H](CC(=O)O)C(=O)N[C@@H](CC(C)C)C(=O)N[C@@H](CC(C)C)C(=O)NCC(=O)N[C@@H](CCCCN)C(=O)N[C@@H](Cc1ccccc1)C(=O)N[C@@H](CC(C)C)C(=O)NCC(=O)N[C@@H](CC(N)=O)C(=O)N[C@@H](Cc1ccc(O)cc1)C(=O)O)C(C)C", "note": "[PSMα3N22Y]", "values": [{"measurement": "PMN lysis at high concentration", "setting": "[1]", "result": "completely lysed the neutrophils"}, {"measurement": "FPR2-activating potential, PSMα3 versus PSMα3N22Y", "setting": "[2]; [4]", "result": "no difference in the FPR2-activating potential"}, {"measurement": "Activation of FPR2 relative to FPR1 and FPR3", "setting": "[2]; [4]", "result": "activated FPR2 much stronger than FPR1 and FPR3"}, {"measurement": "Kd", "setting": "[2]; one site-binding model from Ca2+ flux, synthetic peptides, FPR2-transfected HL60 cells, three biological and two technical replicates, error = standard deviation", "result": "10.8 ± 2.38", "unit": "nM"}, {"measurement": "Chemotaxis with addition of FPR2 blocking agent FLIPr, 100 nM peptide", "setting": "[3]", "result": "no chemotaxis"}, {"measurement": "Difference in chemotactic potential between the two peptides with FPR2 blocked, 1 µM peptide", "setting": "[3]; peptide 1 µM", "result": "very strong difference in chemotactic potential"}]}, {"smiles": "CSCC[C@H](NC=O)C(=O)N[C@@H](CCC(=O)O)C(=O)N[C@@H](Cc1ccccc1)C(=O)N[C@H](C(=O)N[C@@H](C)C(=O)N[C@@H](CCCCN)C(=O)N[C@@H](CC(C)C)C(=O)N[C@@H](Cc1ccccc1)C(=O)N[C@@H](CCCCN)C(=O)N[C@@H](Cc1ccccc1)C(=O)N[C@@H](Cc1ccccc1)C(=O)N[C@@H](CCCCN)C(=O)N[C@@H](CC(=O)O)C(=O)N[C@@H](CC(C)C)C(=O)N[C@@H](CC(C)C)C(=O)NCC(=O)N[C@@H](CCCCN)C(=O)N[C@@H](Cc1ccccc1)C(=O)N[C@@H](CC(C)C)C(=O)NCC(=O)N[C@@H](CC(N)=O)C(=O)N[C@@H](CC(N)=O)C(=O)O)C(C)C", "note": "[PSMα3]", "values": [{"measurement": "PMN lysis at high concentration", "setting": "[1]", "result": "completely lysed the neutrophils"}, {"measurement": "Cytolytic capacity toward human neutrophils", "setting": "[1]; synthetic peptides, LDH release, 2 donors, triplicate, compared to PSMα3N22Y", "result": "significantly higher cytolytic capacities"}, {"measurement": "Activation of FPR2 relative to FPR1 and FPR3", "setting": "[2]; [4]", "result": "activated FPR2 much stronger than FPR1 and FPR3"}, {"measurement": "Chemotaxis with addition of FPR2 blocking agent FLIPr, 100 nM peptide", "setting": "[3]", "result": "no chemotaxis"}]}]}
